Laboratory results: patent US8173633B2, “Protein kinase C activity enhancer containing alkyl ether derivative or salt thereof” (Toyama Chemical Co., Ltd., priority 2006, dated 2012)

Target: T1, PKCε (Rattus norvegicus, UniProt P09216)
T1 construct: The cerebral cortex was removed from 18-day fetuses of Wistar/ST rats; endogenous in cells; host or cells: primary cultured cerebral cortex cells from 18-day fetuses of Wistar/ST rats
T1 sequence (P09216 1-737): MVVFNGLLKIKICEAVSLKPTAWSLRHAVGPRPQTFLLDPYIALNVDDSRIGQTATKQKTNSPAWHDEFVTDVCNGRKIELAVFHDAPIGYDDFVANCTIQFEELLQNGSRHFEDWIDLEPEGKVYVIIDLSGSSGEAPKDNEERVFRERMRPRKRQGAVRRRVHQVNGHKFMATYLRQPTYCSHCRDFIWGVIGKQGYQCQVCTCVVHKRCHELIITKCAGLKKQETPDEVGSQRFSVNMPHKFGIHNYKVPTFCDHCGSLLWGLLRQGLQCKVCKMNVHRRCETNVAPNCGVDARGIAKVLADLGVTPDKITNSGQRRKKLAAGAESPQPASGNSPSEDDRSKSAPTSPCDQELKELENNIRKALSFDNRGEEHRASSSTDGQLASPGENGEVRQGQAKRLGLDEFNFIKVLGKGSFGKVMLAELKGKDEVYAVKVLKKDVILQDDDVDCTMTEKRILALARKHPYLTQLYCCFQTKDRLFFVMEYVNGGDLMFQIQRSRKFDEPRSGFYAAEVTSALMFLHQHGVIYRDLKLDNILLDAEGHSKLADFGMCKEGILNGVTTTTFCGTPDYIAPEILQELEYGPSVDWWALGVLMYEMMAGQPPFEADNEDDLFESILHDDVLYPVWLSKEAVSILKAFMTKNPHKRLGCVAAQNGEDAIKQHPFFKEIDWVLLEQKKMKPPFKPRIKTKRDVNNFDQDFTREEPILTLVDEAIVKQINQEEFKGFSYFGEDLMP
Assay: PKC activity enhancing effect in cultured cells (PKCε migration from cytosol to membrane fraction, western blotting)
Format: cell-based, Wistar/ST rats
Settings: cultured fetal rat cerebral cortex cells, 0.1 μmol/L in terms of T-817, FIG. 1
Description: The PKC activity was determined, according to the method of Etcheberrigaray et al. (Proceedings of the National Academy of Sciences of the United States of America, 2004, Vol. 101, No. 30, p. 11141-11146), as applicable. At the time of activation, PKC migrates from the cytoplasm to membranes. The PKC level in the membrane fraction over that in the cytosol fraction was taken as the index of PKC activation. In this experiment, the activity of PKCε, a known isoform of PKC, was measured.
Cultured cells were prepared following the method of Hirata et al. (J. Pharmacol. Exp. Ther., 2005, Vol. 314, No. 1, p. 252-259). […]
On Day 8 from the start of the culturing, T-817MA was added to the cells to a final concentration of 0.1 μmol/L, in terms of T-817, After this addition, the cells were washed with PBS at 0 (untreated), 1, 2 and 4 hours. […] The protein concentration in the cytosol fraction and the membrane fraction was measured, and the protein content in each sample was adjusted to a certain constant level with the extraction buffer or the extraction buffer containing Triton X-100, These samples were then diluted with electrophoresis buffer containing mercaptoethanol (manufactured by Wako Pure Chemical Industries Ltd.) and SDS-PAGE (40 mA, 30 minutes) was carried on 10% polyacrylamide gel. […]

- PKCε migration from the cytoplasm to membranes (index of PKC activation) (2 hours after treatment): migrated from the cytoplasm to membranes
- PKCε migration from the cytoplasm to membranes (index of PKC activation) (4 hours after treatment): migrated from the cytoplasm to membranes
Structure (SMILES): O=C(O)/C=C\C(=O)O.OC1CN(CCCOCCc2ccc3sccc3c2)C1 [T-817MA]
